Data reported in patent US20080146617A1, “Methods of treating inflammatory diseases” (Roche Palo Alto LLC, priority 2006, published 2008).

Key:
Assay in all cases: KinomeScan kinase profiling
Assay type in all cases: binding
AAK1 = molecular target: T1, AAK1 (Homo sapiens, UniProt Q2M2I8)
T1 construct: purchased Ambit Biosciences (San Diego, Calif.)
Source text: (§1) The selectivity of a given CK1δ, CK1ε or CK1δ-CK1ε inhibitor compound can be determined by testing the compound against a panel of known kinases. An example of such a kinase profiling technology is the “KinomeScan” from Ambit Biosciences in which compounds can be screened for their modulatory activities against more than 200 known kinases.

AKT1 = molecular target: T2, AKT1 (Homo sapiens, UniProt P31749)
T2 construct: purchased Ambit Biosciences (San Diego, Calif.)
Source text: as §1

BIKE = molecular target: T3, BIKE (Homo sapiens, UniProt Q9NSY1)
T3 construct: purchased Ambit Biosciences (San Diego, Calif.)
Source text: as §1

BLK = molecular target: T4, BLK (Homo sapiens, UniProt P51451)
T4 construct: purchased Ambit Biosciences (San Diego, Calif.)
Source text: as §1

CAMK1D = molecular target: T5, CAMK1D (Homo sapiens, UniProt Q8IU85)
T5 construct: purchased Ambit Biosciences (San Diego, Calif.)
Source text: as §1

CAMK1G = molecular target: T6, CAMK1G (Homo sapiens, UniProt Q96NX5)
T6 construct: purchased Ambit Biosciences (San Diego, Calif.)
Source text: as §1

CAMK2A = molecular target: T7, CAMK2A (Homo sapiens, UniProt Q9UQM7)
T7 construct: purchased Ambit Biosciences (San Diego, Calif.)
Source text: as §1

CAMK2B = molecular target: T8, CAMK2B (Homo sapiens, UniProt Q13554)
T8 construct: purchased Ambit Biosciences (San Diego, Calif.)
Source text: as §1

CAMK2D = molecular target: T9, CAMK2D (Homo sapiens, UniProt Q13557)
T9 construct: purchased Ambit Biosciences (San Diego, Calif.)
Source text: as §1

CAMKK2 = molecular target: T10, CAMKK2 (Homo sapiens, UniProt Q96RR4)
T10 construct: purchased Ambit Biosciences (San Diego, Calif.)
Source text: as §1

EGFR = molecular target: T11, EGFR (Homo sapiens, UniProt P00533)
T11 construct: purchased Ambit Biosciences (San Diego, Calif.)
Source text: as §1

EPHA4 = molecular target: T12, EPHA4 (Homo sapiens, UniProt P54764)
T12 construct: purchased Ambit Biosciences (San Diego, Calif.)
Source text: as §1

EPHA5 = molecular target: T13, EPHA5 (Homo sapiens, UniProt P54756)
T13 construct: purchased Ambit Biosciences (San Diego, Calif.)
T13 sequence (P54756 25-1037): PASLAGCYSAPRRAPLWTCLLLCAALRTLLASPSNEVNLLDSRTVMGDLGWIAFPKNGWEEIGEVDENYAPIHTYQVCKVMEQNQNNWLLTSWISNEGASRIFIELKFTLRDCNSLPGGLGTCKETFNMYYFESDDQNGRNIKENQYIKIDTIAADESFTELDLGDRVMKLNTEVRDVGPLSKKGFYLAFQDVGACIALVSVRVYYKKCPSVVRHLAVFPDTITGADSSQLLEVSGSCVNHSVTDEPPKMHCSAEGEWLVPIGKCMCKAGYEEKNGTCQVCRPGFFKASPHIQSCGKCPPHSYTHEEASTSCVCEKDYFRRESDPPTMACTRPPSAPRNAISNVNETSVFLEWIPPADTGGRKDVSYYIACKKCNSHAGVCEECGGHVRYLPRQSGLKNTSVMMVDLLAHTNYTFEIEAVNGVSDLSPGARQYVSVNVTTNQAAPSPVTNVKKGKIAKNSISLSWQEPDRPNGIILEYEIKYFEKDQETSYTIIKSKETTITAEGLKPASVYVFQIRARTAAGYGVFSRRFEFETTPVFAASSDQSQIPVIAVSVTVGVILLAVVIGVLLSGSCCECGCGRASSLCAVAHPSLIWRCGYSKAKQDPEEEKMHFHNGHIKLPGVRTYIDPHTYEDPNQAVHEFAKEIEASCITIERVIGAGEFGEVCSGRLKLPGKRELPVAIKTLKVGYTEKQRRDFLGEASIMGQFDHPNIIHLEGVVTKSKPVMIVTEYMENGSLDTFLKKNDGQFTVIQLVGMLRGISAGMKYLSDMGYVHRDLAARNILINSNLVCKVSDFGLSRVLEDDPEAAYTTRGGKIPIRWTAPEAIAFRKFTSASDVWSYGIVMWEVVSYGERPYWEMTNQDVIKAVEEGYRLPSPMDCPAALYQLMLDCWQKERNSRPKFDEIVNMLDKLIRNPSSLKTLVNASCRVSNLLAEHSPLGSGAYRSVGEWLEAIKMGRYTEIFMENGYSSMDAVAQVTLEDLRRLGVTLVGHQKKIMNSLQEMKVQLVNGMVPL
Source text: as §1

EPHA6 = molecular target: T14, EPHA6 (Homo sapiens, UniProt Q9UF33)
T14 construct: purchased Ambit Biosciences (San Diego, Calif.)
Source text: as §1

EPHA7 = molecular target: T15, EPHA7 (Homo sapiens, UniProt Q15375)
T15 construct: purchased Ambit Biosciences (San Diego, Calif.)
Source text: as §1

EPHA8 = molecular target: T16, EPHA8 (Homo sapiens, UniProt P29322)
T16 construct: purchased Ambit Biosciences (San Diego, Calif.)
Source text: as §1

EPHB1 = molecular target: T17, EPHB1 (Homo sapiens, UniProt P54762)
T17 construct: purchased Ambit Biosciences (San Diego, Calif.)
Source text: as §1

ERBB4 = molecular target: T18, ERBB4 (Homo sapiens, UniProt Q15303)
T18 construct: purchased Ambit Biosciences (San Diego, Calif.)
Source text: as §1

FER = molecular target: T19, FER (Homo sapiens, UniProt P16591)
T19 construct: purchased Ambit Biosciences (San Diego, Calif.)
Source text: as §1

FLT3 = molecular target: T20, FLT3 (Homo sapiens, UniProt P36888)
T20 construct: purchased Ambit Biosciences (San Diego, Calif.)
Source text: as §1

FLT4 = molecular target: T21, FLT4 (Homo sapiens, UniProt P35916)
T21 construct: purchased Ambit Biosciences (San Diego, Calif.)
Source text: as §1

FRK = molecular target: T22, FRK (Homo sapiens, UniProt P42685)
T22 construct: purchased Ambit Biosciences (San Diego, Calif.)
Source text: as §1

FYN = molecular target: T23, FYN (Homo sapiens, UniProt P06241)
T23 construct: purchased Ambit Biosciences (San Diego, Calif.)
T23 sequence (P06241 whole entry): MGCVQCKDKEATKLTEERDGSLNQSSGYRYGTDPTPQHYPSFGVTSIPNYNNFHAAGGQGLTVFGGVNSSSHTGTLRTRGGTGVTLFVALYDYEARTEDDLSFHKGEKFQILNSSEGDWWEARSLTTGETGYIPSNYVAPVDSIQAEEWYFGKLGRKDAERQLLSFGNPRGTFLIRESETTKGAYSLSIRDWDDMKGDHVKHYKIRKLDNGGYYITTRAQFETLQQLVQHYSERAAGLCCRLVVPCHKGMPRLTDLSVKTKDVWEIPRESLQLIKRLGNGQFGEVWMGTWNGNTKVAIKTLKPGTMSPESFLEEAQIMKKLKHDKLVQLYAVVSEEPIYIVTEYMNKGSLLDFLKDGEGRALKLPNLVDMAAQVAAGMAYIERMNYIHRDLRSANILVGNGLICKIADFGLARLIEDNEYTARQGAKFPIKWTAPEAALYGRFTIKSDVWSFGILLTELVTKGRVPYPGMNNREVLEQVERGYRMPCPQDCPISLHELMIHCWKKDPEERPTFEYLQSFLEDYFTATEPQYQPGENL
Source text: as §1

GAK = molecular target: T24, GAK (Homo sapiens, UniProt O14976)
T24 construct: purchased Ambit Biosciences (San Diego, Calif.)
Source text: as §1

JNK3 = molecular target: T25, JNK3 (Homo sapiens, UniProt P53779)
T25 construct: purchased Ambit Biosciences (San Diego, Calif.)
Source text: as §1

LTK = molecular target: T26, LTK (Homo sapiens, UniProt P29376)
T26 construct: purchased Ambit Biosciences (San Diego, Calif.)
T26 sequence (P29376 17-864): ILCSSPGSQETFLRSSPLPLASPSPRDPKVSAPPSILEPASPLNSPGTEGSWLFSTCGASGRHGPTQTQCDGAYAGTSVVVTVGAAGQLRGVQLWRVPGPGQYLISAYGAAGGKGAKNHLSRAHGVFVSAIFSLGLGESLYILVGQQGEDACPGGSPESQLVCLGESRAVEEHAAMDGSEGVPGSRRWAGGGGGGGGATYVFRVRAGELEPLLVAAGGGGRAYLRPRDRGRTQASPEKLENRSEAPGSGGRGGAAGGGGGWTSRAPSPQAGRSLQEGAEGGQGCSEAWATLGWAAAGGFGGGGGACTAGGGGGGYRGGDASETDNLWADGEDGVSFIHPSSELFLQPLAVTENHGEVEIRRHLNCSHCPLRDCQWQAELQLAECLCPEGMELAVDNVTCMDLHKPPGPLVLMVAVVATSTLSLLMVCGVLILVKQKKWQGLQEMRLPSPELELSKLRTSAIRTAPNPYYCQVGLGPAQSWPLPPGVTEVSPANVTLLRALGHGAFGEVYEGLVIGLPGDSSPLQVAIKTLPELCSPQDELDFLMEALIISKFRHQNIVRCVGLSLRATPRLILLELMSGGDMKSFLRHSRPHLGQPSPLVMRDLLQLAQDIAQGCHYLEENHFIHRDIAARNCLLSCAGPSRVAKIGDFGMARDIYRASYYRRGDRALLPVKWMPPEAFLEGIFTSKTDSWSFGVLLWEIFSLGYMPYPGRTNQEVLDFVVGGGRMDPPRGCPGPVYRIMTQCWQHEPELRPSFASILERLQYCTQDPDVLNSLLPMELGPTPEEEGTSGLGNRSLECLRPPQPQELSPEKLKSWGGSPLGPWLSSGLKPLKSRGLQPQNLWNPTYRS
Source text: as §1

MAP4K5 = molecular target: T27, MAP4K5 (Homo sapiens, UniProt Q9Y4K4)
T27 construct: purchased Ambit Biosciences (San Diego, Calif.)
Source text: as §1

NEK6 = molecular target: T28, NEK6 (Homo sapiens, UniProt Q9HC98)
T28 construct: purchased Ambit Biosciences (San Diego, Calif.)
T28 sequence (Q9HC98 whole entry): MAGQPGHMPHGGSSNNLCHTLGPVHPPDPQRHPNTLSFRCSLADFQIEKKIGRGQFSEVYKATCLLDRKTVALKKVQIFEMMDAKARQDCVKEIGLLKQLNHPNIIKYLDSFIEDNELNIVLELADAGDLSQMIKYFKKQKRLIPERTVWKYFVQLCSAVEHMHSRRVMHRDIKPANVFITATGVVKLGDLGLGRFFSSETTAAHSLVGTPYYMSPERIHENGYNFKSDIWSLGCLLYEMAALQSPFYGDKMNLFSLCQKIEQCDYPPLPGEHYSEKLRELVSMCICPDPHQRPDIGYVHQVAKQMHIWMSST
Source text: as §1

PAK1 = molecular target: T29, PAK1 (Homo sapiens, UniProt Q13153)
T29 construct: purchased Ambit Biosciences (San Diego, Calif.)
Source text: as §1

PAK7/PAK5 = molecular target: T30, PAK7/PAK5 (Homo sapiens, UniProt Q9P286)
T30 construct: purchased Ambit Biosciences (San Diego, Calif.)
T30 sequence (Q9P286 whole entry): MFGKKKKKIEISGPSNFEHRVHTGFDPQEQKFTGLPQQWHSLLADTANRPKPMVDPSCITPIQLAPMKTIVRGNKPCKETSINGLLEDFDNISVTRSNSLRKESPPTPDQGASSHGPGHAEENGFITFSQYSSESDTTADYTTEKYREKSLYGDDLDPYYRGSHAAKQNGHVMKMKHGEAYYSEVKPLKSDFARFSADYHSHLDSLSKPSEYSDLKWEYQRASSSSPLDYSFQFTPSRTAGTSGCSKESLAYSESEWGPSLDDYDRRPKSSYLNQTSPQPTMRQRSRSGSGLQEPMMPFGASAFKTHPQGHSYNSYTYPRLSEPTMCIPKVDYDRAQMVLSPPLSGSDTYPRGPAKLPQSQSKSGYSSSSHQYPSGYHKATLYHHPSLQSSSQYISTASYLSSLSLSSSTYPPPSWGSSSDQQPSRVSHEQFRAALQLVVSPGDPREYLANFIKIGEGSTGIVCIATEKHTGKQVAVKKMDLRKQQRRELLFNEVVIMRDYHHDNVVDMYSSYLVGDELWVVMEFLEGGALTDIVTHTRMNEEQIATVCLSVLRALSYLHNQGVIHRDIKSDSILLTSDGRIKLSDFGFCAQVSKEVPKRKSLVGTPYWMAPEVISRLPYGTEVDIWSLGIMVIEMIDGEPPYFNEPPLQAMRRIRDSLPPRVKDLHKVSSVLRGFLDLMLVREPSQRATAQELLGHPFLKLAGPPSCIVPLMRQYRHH
Source text: as §1

PDPK1 = molecular target: T31, PDPK1 (Homo sapiens, UniProt O15530)
T31 construct: purchased Ambit Biosciences (San Diego, Calif.)
Source text: as §1

PKMYT1 = molecular target: T32, PKMYT1 (Homo sapiens, UniProt Q99640)
T32 construct: purchased Ambit Biosciences (San Diego, Calif.)
Source text: as §1

PLK4 = molecular target: T33, PLK4 (Homo sapiens, UniProt O00444)
T33 construct: purchased Ambit Biosciences (San Diego, Calif.)
T33 sequence (O00444 whole entry): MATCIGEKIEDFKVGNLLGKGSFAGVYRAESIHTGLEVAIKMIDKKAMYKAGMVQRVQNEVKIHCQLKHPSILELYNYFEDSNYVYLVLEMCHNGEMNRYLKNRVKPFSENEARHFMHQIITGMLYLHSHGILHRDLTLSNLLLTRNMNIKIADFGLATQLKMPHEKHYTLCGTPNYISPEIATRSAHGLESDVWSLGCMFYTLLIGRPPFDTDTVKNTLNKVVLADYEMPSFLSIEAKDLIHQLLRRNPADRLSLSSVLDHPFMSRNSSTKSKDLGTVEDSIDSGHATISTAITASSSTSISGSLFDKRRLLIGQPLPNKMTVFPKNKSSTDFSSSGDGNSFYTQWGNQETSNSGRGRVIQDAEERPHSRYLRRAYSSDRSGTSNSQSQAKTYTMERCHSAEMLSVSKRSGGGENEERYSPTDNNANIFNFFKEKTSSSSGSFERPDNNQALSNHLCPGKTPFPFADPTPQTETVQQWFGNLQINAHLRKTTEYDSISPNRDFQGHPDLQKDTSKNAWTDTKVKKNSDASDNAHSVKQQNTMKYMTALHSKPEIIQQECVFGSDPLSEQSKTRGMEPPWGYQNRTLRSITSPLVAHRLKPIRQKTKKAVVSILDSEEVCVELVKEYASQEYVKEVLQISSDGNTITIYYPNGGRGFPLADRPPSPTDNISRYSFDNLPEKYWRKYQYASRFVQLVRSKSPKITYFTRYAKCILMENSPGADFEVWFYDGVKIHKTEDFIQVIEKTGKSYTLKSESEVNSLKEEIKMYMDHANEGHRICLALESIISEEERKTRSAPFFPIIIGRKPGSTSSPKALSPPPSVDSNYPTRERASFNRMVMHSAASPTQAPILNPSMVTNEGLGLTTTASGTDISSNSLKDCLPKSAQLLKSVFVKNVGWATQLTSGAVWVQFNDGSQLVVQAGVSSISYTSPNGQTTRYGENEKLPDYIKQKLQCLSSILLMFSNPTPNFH
Source text: as §1

PTK2B = molecular target: T34, PTK2B (Homo sapiens, UniProt Q14289)
T34 construct: purchased Ambit Biosciences
Source text: as §1

RAF1 = molecular target: T35, RAF1 (Homo sapiens, UniProt P04049)
T35 construct: purchased Ambit Biosciences
Source text: as §1

RIPK2 = molecular target: T36, RIPK2 (Homo sapiens, UniProt O43353)
T36 construct: purchased Ambit Biosciences
Source text: as §1

RPS6KA5 = molecular target: T37, RPS6KA5 (Homo sapiens, UniProt O75582)
T37 construct: purchased Ambit Biosciences
Source text: as §1

SYK = molecular target: T38, SYK (Homo sapiens, UniProt P43405)
T38 construct: purchased Ambit Biosciences
Source text: as §1

TRKA = molecular target: T39, TRKA (Homo sapiens, UniProt P04629)
T39 construct: purchased Ambit Biosciences
Source text: as §1

YES = molecular target: T40, YES (Homo sapiens, UniProt P07947)
T40 construct: purchased Ambit Biosciences (San Diego, Calif.)
T40 sequence (P07947 whole entry): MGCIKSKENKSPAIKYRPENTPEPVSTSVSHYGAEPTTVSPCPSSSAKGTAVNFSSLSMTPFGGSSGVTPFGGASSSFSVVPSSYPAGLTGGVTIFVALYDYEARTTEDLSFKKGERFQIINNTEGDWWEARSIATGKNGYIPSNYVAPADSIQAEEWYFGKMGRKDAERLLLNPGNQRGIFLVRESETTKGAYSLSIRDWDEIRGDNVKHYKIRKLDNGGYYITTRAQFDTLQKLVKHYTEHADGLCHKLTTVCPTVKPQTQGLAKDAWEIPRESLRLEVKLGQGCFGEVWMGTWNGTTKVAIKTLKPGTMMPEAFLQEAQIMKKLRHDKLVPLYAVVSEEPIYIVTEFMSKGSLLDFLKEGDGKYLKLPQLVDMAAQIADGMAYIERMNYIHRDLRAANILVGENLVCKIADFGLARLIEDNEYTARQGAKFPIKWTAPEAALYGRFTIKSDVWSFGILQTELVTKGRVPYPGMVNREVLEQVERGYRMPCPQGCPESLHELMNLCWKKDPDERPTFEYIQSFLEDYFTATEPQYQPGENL
Source text: as §1

Measured: inhibition at 10 µM

NC(=O)c1ccc(-c2nc(-c3ccc4c(c3)OCO4)c(-c3ccccn3)[nH]2)cc1 [SB431542, 4-(4-benzo-[1,3]dioxol-5-yl-5-pyridin-2-yl-1H-imidazol-2-yl)benzamide]
< 50%: all assays above

NC(=O)c1ccc(-c2nc(-c3ccc4c(c3)OCCO4)c(-c3ccccn3)[nH]2)cc1 [D4476, 4-[4-(2,3-Dihydro-benzo[1,4]dioxin-6-yl)-5-pyridin-2-yl-1H-imidazol-2-yl]benzamide]
< 50%: all assays above
